In patent publication US9018411B2, “Bis-acylated hydroxylamine derivatives” (Cardioxyl Pharmaceuticals, Inc., priority 2009, dated 2015):

What was measured:
[1] = Decomposition of compound in PBS buffer, pH 7.4 determined by HPLC; format: physicochemical; conditions: 37° C. under argon; for half-life: read-out: approximate half-life (in parentheses in Decomp. Time column)
Experimental: (§1) The ability of compounds to donate HNO is assessed. N2O results are reported relative to Angeli's salt. All decompositions are carried out at 37° C. under argon.

[2] = HNO production via N2O quantification (GC headspace analysis); format: physicochemical; conditions: 37° C. under argon, N2O relative to Angeli's salt; for % N2O pH 7.4: compound incubated in PBS buffer; for % N2O DI: compound incubated in DI water; for % N2O pH 10.3: compound incubated in pH 10.3 carbonate buffer
Experimental: (§2) Nitrous oxide is produced via the dimerization and dehydration of HNO, and is the most common marker for HNO production (Fukuto, J. M. et al., Chem. Res. Toxicol. 2005, 18, 790-801).
as §1

esterase = assay: HNO production via N2O quantification in PBS buffer, pH 7.4 with added esterase; format: in vitro ADME; conditions: pH 7.4 with 2-4 mg added esterase, 37° C. under argon, N2O relative to Angeli's salt
Experimental: as §2, §1

Row | Decomp. Time (time required for complete decomposition) [1] [h] | % N2O esterase (esterase) [%] | half-life [1] [min] | Structure (SMILES) | % N2O pH 7.4 [2] [%] | % N2O DI [2] [%] | % N2O pH 10.3 [2] [%]
1 | <3 |  |  | CC(=O)ON(C(C)=O)S(=O)(=O)c1ccccc1[N+](=O)[O-] [Compound 25, N-(2-nitrobenzenesulfonyl)-N-acetyloxy-acetamide] | 13 |  | 
2 | <3 |  |  | CC(=O)ON(Br)C(C)=O [Compound 15, N-bromo-N-acetyloxy-acetamide] | 7 |  | 
3 | <3 |  |  | CC(C)(C)OC(=O)N(OC(=O)c1ccc([N+](=O)[O-])cc1)S(=O)(=O)c1c(Cl)cccc1Cl [Compound 40] | 0 |  | 
4 | <2 | 67 |  | CC(=O)ON(C(=O)OC(C)(C)C)S(=O)(=O)c1ccccc1Br [Compound 36, N-(2-bromobenzenesulfonyl)-N-acetyloxy-tert-butyl-carbamate] | 7 |  | 
5 | < 3 |  | ~30 | CC(=O)ON(C(C)=O)S(=O)(=O)c1c(F)cccc1F [Compound 24, N-(2,6-difluorobenzenesulfonyl)-N-acetyloxy-acetamide] | 23 |  | 
6 | <3 |  |  | CC(=O)ON(Cl)C(C)=O [Compound 9, N-chloro-N-acetyloxy-acetamide] | 15 | 80 | 
7 | <3 |  |  | CC(=O)ON(Cl)C(=O)OC(C)(C)C [Compound 10, N-chloro-N-acetyloxy-tert-butyl- carbamate] | 39 | 98 | 
8 | < 3 | 57 | ~40 | CC(=O)ON(C(C)=O)S(=O)(=O)c1c(Cl)cccc1Cl [Compound 23, N-(2,6-dichlorobenzenesulfonyl)-N-acetyloxy-acetamide] | 56 |  | 56
9 | <3 |  |  | CC(=O)ON(C(C)=O)S(=O)(=O)c1ccccc1Cl [Compound 20, N-(2-chlorobenzenesulfonyl)-N-acetyloxy-acetamide] | 23 |  | 
10 | >20 |  |  | CC(=O)ON(C(=O)C(C)(C)C)S(=O)(=O)c1ccccc1[N+](=O)[O-] [Compound 32, N-(2-nitrobenzenesulfonyl)-N-acetyloxy-trimethylacetamide] | 0 |  | 
11 | <3 |  |  | CC(C)(C)C(=O)ON(Cl)C(=O)C(C)(C)C [Compound 12, N-chloro-N-(trimethylacetyloxy)- trimethylacetamide] | 1 | 37 | 
12 | <3 |  |  | CC(=O)ON(C(C)=O)S(=O)(=O)c1c(F)cc(F)cc1Br [Compound 21, N-(2-bromo-4,6-difluoro-benzenesulfonyl)-N-acetyloxy-acetamide] | 39 |  | 
13 | <3 |  |  | CC(=O)ON(C(=O)C(Cl)Cl)S(=O)(=O)c1c(Cl)cccc1Cl [Compound 30, N-(2,6-dichlorobenzenesulfonyl)-N-acetyloxy-dichloroacetamide] | 3 |  | 8
14 | <20 |  |  | CC(=O)ON(C(=O)C(C)(C)C)S(=O)(=O)c1c(Cl)cccc1Cl [Compound 33, N-(2,6-dichlorobenzenesulfonyl)-N-acetyloxy-trimethylacetamide] | 1 |  | 33
15 | <3 |  |  | O=C(ON(Cl)C(=O)c1ccccc1)C(Cl)Cl [Compound 7, N-chloro-N-dichloroacetyloxy- benzamide] | 7 |  | 
16 | <3 |  |  | CC(=O)ON(C(C)=O)S(=O)(=O)CCl [Compound 26, N-(chloromethylsulfonyl)-N- acetyloxy-acetamide] | 13 |  | 
17 | <3 | 83 |  | CC(=O)ON(C(=O)OCc1ccccc1)S(=O)(=O)c1c(Cl)cccc1Cl [Compound 29, N-(2,6-dichlorobenzenesulfonyl)-N-acetyloxy-benzyl-carbamate] | 21 |  | 52
18 | <3 |  |  | CCOC(=O)ON(Cl)C(=O)OCC [Compound 11, N-chloro-ethyl-carbonoxy-ethyl- carbamate] | 12 | 31 | 
19 | <3 |  |  | O=C(ON(Cl)C(=O)c1ccc(Cl)cc1)c1ccc(Cl)cc1 [Compound 2, N-chloro-N-(4-chlorobenzoyloxy)-4-chlorobenzamide] | 1 | 32 | 
20 | <3 |  |  | CC(C)(C)OC(=O)N(Cl)OC(=O)c1ccc([N+](=O)[O-])cc1 [Compound 13] |  | 9 | 
21 | <3 |  |  | O=C(ON(Cl)C(=O)c1ccccc1)c1ccccc1 [Compound 1, N-chloro-N-benzoyloxy-benzamide] | 1 | 29 | 
22 | <3 |  |  | CCOC(=O)N(OC(C)=O)S(=O)(=O)c1c(Cl)cccc1Cl [Compound 27] | 57 |  | 
23 | <3 |  |  | CC(=O)ON(Cl)C(=O)C(C)(C)C [Compound 14, N-chloro-N-(acetyloxy)- trimethylacetamide] | 6 | 48 | 
24 | < 2 |  | ~20 | CC(=O)ON(C(C)=O)S(=O)(=O)c1ccccc1Br [Compound 19, N-(2-bromobenzenesulfonyl)-N-acetyloxy-acetamide] | 35 |  | 
25 | <20 |  |  | CC(=O)ON(C(=O)C(C)(C)C)S(=O)(=O)c1cc(Cl)ccc1Cl [Compound 31, N-(2,5-dichlorobenzenesulfonyl)-N-acetyloxy-trimethylacetamide] | 5 |  | 
26 | <3 | 73 |  | CC(=O)ON(C(=O)OC(C)(C)C)S(=O)(=O)c1c(Br)cccc1Br [Compound 38, N-(2,6-dibromobenzenesulfonyl)-N-acetyloxy-tert-butyl-carbamate] | 3 |  | 37
27 | <3 |  |  | CC(=O)ON(C(=O)c1ccccc1)S(=O)(=O)c1c(Cl)cccc1Cl [Compound 28, N-(2,6-dichlorobenzenesulfonyl)-N-acetyloxy-benzamide] | 17 |  | 44
28 | < 2 |  | ~20 | CC(=O)ON(C(C)=O)S(=O)(=O)c1c(Br)cccc1Br [Compound 22, N-(2,6-dibromobenzenesulfonyl)-N-acetyloxy-acetamide] | 71 |  | 
29 | <3 | 85 |  | CC(=O)ON(C(=O)OC(C)(C)C)S(=O)(=O)c1c(Cl)cccc1Cl [Compound 37, N-(2,6-dichlorobenzenesulfonyl)-N-acetyloxy-tert-butyl-carbamate] | 4 |  | 
30 | <3 |  |  | CC(=O)ON(C(C)=O)S(=O)(=O)c1ccc(Cl)cc1 [Compound 18, N-(4-chlorobenzenesulfonyl)-N-acetyloxy-acetamide] | 4 |  | 

Row | Structure (SMILES) | Decomp. Time (time required for complete decomposition) [1] [h] | % N2O esterase (esterase) [%] | half-life [1] [min] | % N2O pH 7.4 [2] [%] | % N2O DI [2] [%] | % N2O pH 10.3 [2] [%]
31 | CC(=O)ON(Cl)C(=O)c1ccccc1 [Compound 6, N-chloro-N-acetoxy-benzamide] | <3 |  |  | 2 |  | 
32 | O=C(c1ccccc1)N(Cl)OC(=O)C(F)(F)F [Compound 8, N-chloro-N-(2,2,2-trifluoroacetoxy)benzamide] | <3 |  |  | 2 |  | 
